Data published in US6013618A, “Perfumes having odor longevity benefits” (Procter & Gamble Company, priority 1998, dated 2000).

Assay: Fragrance Release Half-life: hydrolysis kinetics of pro-accords monitored by HPLC
Assay type: physicochemical
Settings: 10 mL phosphate buffer (NaH2PO4/H3PO4, approximately pH 2.5) admixed with 90 mL dioxane, 30° C.
From the text: Fragrance Release Half-life
The pro-accords useful in the perfume and fine flagrance compositions of the present invention generally have a delayed release of final fragrance accord in order to achieve the increased fragrance longevity benefits described herein. However, the pro-accords generally also deliver the fragrance accords during a time period useful to the formulator, for example, within a time period desirable to the consumer.
For the purposes of the present invention the pro-accords generally have a "Fragrance Release Half-life" of less than or equal to 12 hours when measured in NaH2 PO4 buffer at pH 2.5 and greater than or equal to 0.1 hour when measured in NaH2 PO4 buffer at pH 5.3. The "Fragrance Release Half-life" is defined herein as follows
Pro-accords deliver their corresponding mixture of fragrance raw materials or fragrance accords according to the equation: […]
wherein the accord which is released may be a binary accord or a multiple fragrance raw material accord.
The rate at which the accord is released is defined by the formula: […]
An example of the procedure used to measure the suitability of a pro-accord for use in the fragrance delivery systems at pH 2.5 is as follows. […] Next 10 mL of the phosphate buffer is admixed with 90 mL of dioxane and the pro-fragrance to be analyzed is added. The hydrolysis kinetics are then monitored by conventional HPLC at 30° C. […]

c1ccc(CCOC(OCCc2ccccc2)OCCc2ccccc2)cc1 [tris(phenylethyl) orthoformate, Tris(phenylethyl) Orthoformate]
t1/2 (Fragrance Release Half-life): 5.9 h

c1ccc(CCOC(OCCc2ccccc2)(OCCc2ccccc2)OCCc2ccccc2)cc1 [tetrakis(phenylethyl) orthocarbonate, Tetrakis(phenylethyl) Orthocarbonate]
t1/2 (Fragrance Release Half-life): 4.8 h
